In US7189702B2, “Glucopyranosyloxypyrazole derivatives and medicinal use thereof” (Kissei Pharmaceutical Co., Ltd., priority 2001, dated 2007):

test system: not given; assay: not given; details: normal mice; J. Med. Chem., Vol. 39, pp. 3920–3928 (1996); cited from earlier work

SMILES | amount of excreted glucose
CSc1ccc(Cc2c(C(F)(F)F)[nH][nH]c2=O)cc1 [WAY-123783, reference compound] | increased

molecular target: T1, human SGLT2 (Homo sapiens, UniProt P31639, I433V); assay: Assay for inhibitory effect on human SGLT2 activity (uptake of methyl-α-D-glucopyranoside); format: cell-based; details: inhibition of methyl-α-D-(U-14C)glucopyranoside uptake, COS-7 cells expressing transiently human SGLT2, 37° C., 2 hours
T1 construct: expressed in transfected cells; host or cells: COS-7 cells (RIKEN CELL BANK RCB0539), transient, electroporation of KL29
T1 sequence (P31639 1-672 I433V): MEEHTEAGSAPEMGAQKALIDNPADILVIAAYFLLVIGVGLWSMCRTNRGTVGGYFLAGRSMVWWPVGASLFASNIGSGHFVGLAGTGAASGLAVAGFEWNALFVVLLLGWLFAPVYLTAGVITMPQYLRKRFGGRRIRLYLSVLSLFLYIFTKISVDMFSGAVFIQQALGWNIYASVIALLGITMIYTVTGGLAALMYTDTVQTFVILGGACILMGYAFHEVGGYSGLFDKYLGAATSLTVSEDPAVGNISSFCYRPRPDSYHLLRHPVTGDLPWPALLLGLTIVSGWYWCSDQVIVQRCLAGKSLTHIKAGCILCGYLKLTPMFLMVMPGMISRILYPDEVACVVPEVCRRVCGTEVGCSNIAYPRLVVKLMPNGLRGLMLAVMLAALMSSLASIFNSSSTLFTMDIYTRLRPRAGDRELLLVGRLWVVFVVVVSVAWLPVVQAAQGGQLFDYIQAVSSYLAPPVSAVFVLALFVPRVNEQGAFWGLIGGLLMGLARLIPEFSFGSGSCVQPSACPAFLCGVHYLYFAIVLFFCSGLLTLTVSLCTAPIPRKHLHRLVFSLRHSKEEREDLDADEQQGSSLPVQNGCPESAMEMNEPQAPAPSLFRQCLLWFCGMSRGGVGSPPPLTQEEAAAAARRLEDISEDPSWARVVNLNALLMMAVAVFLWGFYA
Protocol: Assay for Inhibitory Effect on Human SGLT2 Activity
1) Construction of the Plasmid Vector Expressing Human SGLT2
Preparation of the cDNA library for PCR amplification was performed by reverse transcription of a total RNA deprived from human kidney (Ori gene) with oligo dT as the primer, using SUPERSCRIPT Preamplification System (Gibco-BRL: LIFE TECHNOLOGIES). The DNA fragment coding for human SGLT2 was amplified by the PCR reaction, in which the human kidney cDNA library described above was used as the template and the following oligo nucleotides 0702F and 0712R, presented as Sequence Numbers 1 and 2 respectively, were used as the primers. The amplified DNA fragment was ligated into pCR-Blunt (Invitrogen), a vector for cloning, according to standard method of the kit. The Escherichia coli HB101 was transformed according to usual method and then selection of the transformants was performed on the LB agar medium containing 50 μg/mL of kanamycin. After plasmid DNA was extracted and purified from the one of the transformants, amplifying of the DNA fragment coding for human SGLT2 was performed by the PCR reaction, in which the following oligo nucleotides 0714F and 0715R, presented as Sequence Numbers 3 and 4 respectively, were used as the primers. The amplified DNA fragment was digested with restriction enzymes, Xho I and Hind III, and then purified with Wizard Purification System (Promega). This purified DNA fragment was inserted at the corresponding restriction sites of pcDNA3.1 (−) Myc/His-B (Invitrogen), a vector for expressing of fusion protein. The Escherichia coli HB101 was transformed according to usual method and then selection of the transformant was performed on the LB agar medium containing 100 μg/mL of ampicillin. After plasmid DNA was extracted and purified from this transformant, the base sequence of the DNA fragment inserted at the multi-cloning sites of the vector pcDNA3.1 (−) Myc/His-B was analyzed. […] Sequentially, a clone in which valine is substituted for isoleucine-433 was obtained. This plasmid vector expressing human SGLT2 in which the peptide presented as Sequence Number 5 is fused to the carboxyl terminal alanine residue was designated KL29.
2) Preparation of the Cells Expressing Transiently Human SGLT2
KL29, the plasmid coding human SGLT2, was transfected into COS-7 cells (RIKEN CELL BANK RCB0539) by electroporation. Electroporation was performed with GENE PULSER II (Bio-Rad Laboratories) under the condition: 0.290 kV, 975 μF, 2×10^6 cells of COS-7 cell and 20 μg of KL29 in 500 μL of OPTI-MEM I medium (Gibco-BRL: LIFE TECHNOLOGIES) in the 0.4 cm type cuvette. After the gene transfer, the cells were harvested by centrifugation and resuspended with OPTI-MEM I medium (1 mL/cuvette). To each well in 96-wells plate, 125 μL of this cell suspension was added. After overnight culture at 37° C. under 5% CO2, 125 μL of DMEM medium which is containing 10% of fetal bovine serum (Sanko Jyunyaku), 100 units/mL sodium penicillin G (Gibco-BRL: LIFE TECHNOLOGIES), and 100 μg/mL streptomycin sulfate (Gibco-BRL: LIFE TECHNOLOGIES) was added to each well. These cells were cultured until the next day and then they were used for the measurement of the inhibitory activity against the uptake of methyl-α-D-glucopyranoside.
3) Measurement of the Inhibitory Activity Against the Uptake of methyl-α-D-glucopyranoside
After a test compound was dissolved in dimethyl sulfoxide and diluted with the uptake buffer (a pH 7.4 buffer containing 140 mM sodium chloride, 2 mM potassium chloride, 1 mM calcium chloride, 1 mM magnesium chloride, 5 mM methyl-α-D-glucopyranoside, 10 mM 2-[4-(2-hydroxyethyl)-1-piperazinyl]ethane sulfonic acid and 5 mM tris(hydroxymethyl)aminomethane), each diluent was used as test sample for measurement of the inhibitory activity. […]

SMILES | IC50 [nM]
Cc1[nH]nc(O[C@@H]2O[C@H](CO)[C@@H](O)[C@H](O)[C@H]2O)c1Cc1ccc(C=C2CC2)cc1 [Example 20, 3-(β-D-Glucopyranosyloxy)-5-methyl-4-{[4-(cyclopropylidenemethyl)phenyl]methyl}-1H-pyrazole] | 15
Cc1[nH]nc(O[C@@H]2O[C@H](CO)[C@@H](O)[C@H](O)[C@H]2O)c1Cc1ccc(-c2nccs2)cc1 [Example 23, 3-(β-D-Glucopyranosyloxy)-5-methyl-4-{[4-(thiazol-2-yl)phenyl]methyl}-1H-pyrazole] | 46
OCCCc1ccc(Cc2c(O[C@@H]3O[C@H](CO)[C@@H](O)[C@H](O)[C@H]3O)n[nH]c2C(F)(F)F)cc1 [Example 24, 3-(β-D-Glucopyranosyloxy)-4-{[4-(3-hydroxypropyl)phenyl]methyl}-5-trifluoromethyl-1H-pyrazole] | 57
CC(C)=Cc1ccc(Cc2c(O[C@@H]3O[C@H](CO)[C@@H](O)[C@H](O)[C@H]3O)n[nH]c2C)cc1 [Example 25, 3-(β-D-Glucopyranosyloxy)-5-methyl-4-{[4-(2-methylprop-1-en-1-yl)phenyl]methyl}-1H-pyrazole] | 65
Cc1[nH]nc(O[C@@H]2O[C@H](CO)[C@@H](O)[C@H](O)[C@H]2O)c1Cc1ccc(-c2ccc(F)cc2)cc1 [Example 26, 4-{[4-(4-Fluorophenyl)phenyl]methyl}-3-(β-D-glucopyranosyloxy)-5-methyl-1H-pyrazole] | 150
CCc1ccc(Cc2c(O[C@@H]3O[C@H](CO)[C@@H](O)[C@H](O)[C@H]3O)nn(CCCO)c2C)cc1 [Example 39, 4-[(4-Ethylphenyl)methyl]-3-(β-D-glucopyranosyloxy)-1-(3-hydroxypropyl)-5-methyl-1H-pyrazole] | 47
CSc1ccc(Cc2c(C(F)(F)F)[nH][nH]c2=O)cc1 [WAY-123783, reference compound] | > 100000

More lines, in order of falling IC50, values ahead:

IC50 [nM] | SMILES
210 | Cc1[nH]nc(O[C@@H]2O[C@H](CO)[C@@H](O)[C@H](O)[C@H]2O)c1Cc1ccc(OC2CCC2)cc1 [Example 27, 4-{[4-(Cyclobutyloxy)phenyl]methyl}-3-(β-D-glucopyranosyloxy)-5-methyl-1H-pyrazole]
45 | CSc1ccc(Cc2c(O[C@@H]3O[C@H](CO)[C@@H](O)[C@H](O)[C@H]3O)nn(CC3CC3)c2C)cc1 [Example 38, 1-(Cyclopropylmethyl)-3-(β-D-glucopyranosyloxy)-5-methyl-4-[(4-methylthiophenyl)methyl]-1H-pyrazole]
41 | CC/C=C/c1ccc(Cc2c(O[C@@H]3O[C@H](CO)[C@@H](O)[C@H](O)[C@H]3O)n[nH]c2C)cc1 [Example 22, (E)-4-{[4-(But-1-en-1-yl)phenyl]methyl}-3-(β-D-glucopyranosyloxy)-5-methyl-1H-pyrazole]
26 | Cc1c(Cc2ccc(C3CC3)cc2)c(O[C@@H]2O[C@H](CO)[C@@H](O)[C@H](O)[C@H]2O)nn1CC1CC1 [Example 32, 3-(β-D-Glucopyranosyloxy)-5-methyl-1-(cyclopropylmethyl)-4-[(4-cyclopropylphenyl)methyl]-1H-pyrazole]
18 | Cc1[nH]nc(O[C@@H]2O[C@H](CO)[C@@H](O)[C@H](O)[C@H]2O)c1Cc1ccc(C2CC2)cc1 [Example 21, 3-(β-D-Glucopyranosyloxy)-5-methyl-4-[(4-cyclopropylphenyl)methyl]-1H-pyrazole]

same assay, conditions: statement in words

SMILES | inhibitory activity in human SGLT2
CSc1ccc(Cc2c(C(F)(F)F)[nH][nH]c2=O)cc1 [WAY-123783, reference compound] | extremely weak
